Experimental data published in US20070128217A1 (priority 2003, published 2007).

How the values were obtained:
[1] = system: antibodies in sera from SARS patients (sera 1a, 1b, 2, 6, 37, 62, London, SARS-yellow, SARS-green); assay type: binding, human; set-up: Binding of serum 6 to linear peptides of protein X1 of SARS-CoV Urbani / Binding of serum 37 to linear peptides of protein X1 of SARS-CoV Urbani / Binding of serum 6 to looped/cyclic peptide (PEPSCAN-ELISA) / Binding of serum 37 to looped/cyclic peptide (PEPSCAN-ELISA) / Binding of serum 37 to looped/cyclic peptides of protein X1 of SARS-CoV Urbani / Binding of serum 6 to linear peptides of protein X2 / Binding of serum 37 to linear peptides of protein X2 / Binding of serum 37 to looped/cyclic peptides of protein X2 of SARS-CoV Urbani / Binding of serum 6 to linear peptides of protein M of SARS-CoV Urbani / Binding of serum 37 to linear peptides of protein M of SARS-CoV Urbani / Binding of serum 6 to looped/cyclic peptides of protein M of SARS-CoV Urbani / Binding of serum 37 to looped/cyclic peptides of protein M of SARS-CoV Urbani / Binding of serum 6 to linear peptides of protein X3 of SARS-CoV Urbani / Binding of serum 37 to linear peptides of protein X3 of SARS-CoV Urbani / Binding of serum 37 to looped/cyclic peptides of protein X3 of SARS-CoV Urbani / Binding of serum 6 to linear peptides of protein X4 of SARS-CoV Urbani / Binding of serum 37 to linear peptides of protein X4 of SARS-CoV Urbani / Binding of serum 37 to looped/cyclic peptides of protein X4 of SARS-CoV Urbani / Binding of serum 6 to linear peptides of protein X5 of SARS-CoV Urbani / Binding of serum 37 to linear peptides of protein X5 of SARS-CoV Urbani / Binding of serum 37 to looped/cyclic peptides of protein X5 of SARS-CoV Urbani / Binding of serum 6 to linear peptides of protein N of SARS-CoV Urbani / Binding of serum 37 to linear peptides of protein N of SARS-CoV Urbani / Binding of serum 6 to linear peptide (PEPSCAN-ELISA) / Binding of serum 1a to looped/cyclic peptides of protein N of SARS-CoV Urbani / Binding of serum 1b to looped/cyclic peptides of protein N of SARS-CoV Urbani / Binding of serum 2 to looped/cyclic peptides of protein N of SARS-CoV Urbani / Binding of serum 6 to looped/cyclic peptides of protein N of SARS-CoV Urbani / Binding of serum 37 to looped/cyclic peptides of protein N of SARS-CoV Urbani / Binding of serum 62 to looped/cyclic peptides of protein N of SARS-CoV Urbani / Binding of serum London to looped/cyclic peptides of protein N of SARS-CoV Urbani / Binding of serum SARS-green to looped/cyclic peptides of protein N of SARS-CoV Urbani: unit not given here
[2] = system: control sera (pooled serum of ten healthy LUMC hospital workers; commercial negative donor pooled serum from the Dutch bloodbank); assay type: binding, human; set-up: Binding of Control serum LUMC to linear peptides / Binding of Control serum Blood-bank to linear peptides / Binding of Control serum LUMC to looped peptides / Binding of Control Serum Blood-Bank to Looped peptides / Binding of Control serum LUMC to linear peptides of the protein M of SARS-CoV Urbani / Binding of Control serum Blood-bank to linear peptides of the protein M of SARS-CoV Urbani / Binding of Control serum LUMC to looped peptides of the protein M of SARS-CoV Urbani / Binding of Control Serum Blood-Bank to Looped peptides of the protein M of SARS-CoV Urbani: unit not given here
[3] = system: rabbit serum obtained by immunizing a rabbit with the SARS-CoV strain Frankfurt 1; assay type: binding; set-up: Binding of a rabbit serum to linear peptides / Binding of a rabbit serum to looped peptides / Rabbit serum linear peptides / Rabbit serum looped peptides / Binding of a rabbit serum to linear peptides of protein N of SARS-CoV Urbani (Rabbit serum linear peptides) / Binding of a rabbit serum to looped/cyclic peptides of protein N of SARS-CoV Urbani (Rabbit serum looped peptides): unit not given here

## YKGFQFICNLLLLFV
[1]
  Binding of serum 1a to linear peptides of protein X1 of SARS-CoV Urbani: 0.9
  Binding of serum 1a to looped/cyclic peptide (PEPSCAN-ELISA): 0.3
  Binding of serum 1b to linear peptides of protein X1 of SARS-CoV Urbani: 0.8
  Binding of serum 1b to looped/cyclic peptide (PEPSCAN-ELISA): 0.0
  Binding of serum 2 to linear peptides of protein X1 of SARS-CoV Urbani: 0.9
  Binding of serum 2 to looped/cyclic peptide (PEPSCAN-ELISA): 0.0
  Binding of serum 6 to linear peptides of protein X1 of SARS-CoV Urbani: 0.9
  Binding of serum 6 to looped/cyclic peptide (PEPSCAN-ELISA): 0.3
  Binding of serum 37 to linear peptides of protein X1 of SARS-CoV Urbani: 0.7
  Binding of serum 37 to looped/cyclic peptide (PEPSCAN-ELISA): 0.2
  Binding of serum 62 to linear peptides of protein X1 of SARS-CoV Urbani: 1.0
  Binding of serum 62 to looped/cyclic peptide (PEPSCAN-ELISA): 0.3
  Binding of serum London to linear peptides of protein X1 of SARS-CoV Urbani: 0.8
  Binding of serum London to looped/cyclic peptide (PEPSCAN-ELISA): 0.2
  Binding of serum SARS-green to linear peptides of protein X1 of SARS-CoV Urbani: 0.4
  Binding of serum SARS-green to looped/cyclic peptide (PEPSCAN-ELISA): 0.3
  Binding of serum SARS-yellow to linear peptides of protein X1 of SARS-CoV Urbani: 0.6
  Binding of serum SARS-yellow to looped/cyclic peptide (PEPSCAN-ELISA): 0.0
[2]
  Binding of Control Serum Blood-Bank to Looped peptides: 0.4
  Binding of Control serum Blood-bank to linear peptides: 1.0
  Binding of Control serum LUMC to linear peptides: 0.8
  Binding of Control serum LUMC to looped peptides: 0.4
[3]
  Binding of a rabbit serum to linear peptides: 0.3
  Binding of a rabbit serum to looped peptides: 0.0

## LPKEITVATSRTLSY
[1]
  Binding of serum 1a to linear peptides of protein M of SARS-CoV Urbani: 0.7
  Binding of serum 1a to looped/cyclic peptides of protein M of SARS-CoV Urbani: 0.6
  Binding of serum 1b to linear peptides of protein M of SARS-CoV Urbani: 0.5
  Binding of serum 1b to looped/cyclic peptides of protein M of SARS-CoV Urbani: 0.4
  Binding of serum 2 to linear peptides of protein M of SARS-CoV Urbani: 0.6
  Binding of serum 2 to looped/cyclic peptides of protein M of SARS-CoV Urbani: 0.6
  Binding of serum 6 to linear peptides of protein M of SARS-CoV Urbani: 0.4
  Binding of serum 6 to looped/cyclic peptides of protein M of SARS-CoV Urbani: 0.6
  Binding of serum 37 to linear peptides of protein M of SARS-CoV Urbani: 0.4
  Binding of serum 37 to looped/cyclic peptides of protein M of SARS-CoV Urbani: 0.6
  Binding of serum 62 to linear peptides of protein M of SARS-CoV Urbani: 0.5
  Binding of serum 62 to looped/cyclic peptides of protein M of SARS-CoV Urbani: 0.5
  Binding of serum London to linear peptides of protein M of SARS-CoV Urbani: 0.3
  Binding of serum London to looped/cyclic peptides of protein M of SARS-CoV Urbani: 0.2
  Binding of serum SARS-green to linear peptides of protein M of SARS-CoV Urbani: 0.4
  Binding of serum SARS-green to looped/cyclic peptides of protein M of SARS-CoV Urbani: 0.3
  Binding of serum SARS-yellow to linear peptides of protein M of SARS-CoV Urbani: 0.2
  Binding of serum SARS-yellow to looped/cyclic peptides of protein M of SARS-CoV Urbani: 0.5
[2]
  Binding of Control Serum Blood-Bank to Looped peptides of the protein M of SARS-CoV Urbani: 0.6
  Binding of Control serum Blood-bank to linear peptides of the protein M of SARS-CoV Urbani: 0.8
  Binding of Control serum LUMC to linear peptides of the protein M of SARS-CoV Urbani: 0.7
  Binding of Control serum LUMC to looped peptides of the protein M of SARS-CoV Urbani: 0.6
[3]
  Rabbit serum linear peptides: 0.2
  Rabbit serum looped peptides: 0.2

## SRRRLLACLCKHKKV
[1]
  Binding of serum 1a to looped/cyclic peptides of protein X2 of SARS-CoV Urbani: 0.2
  Binding of serum 1b to looped/cyclic peptides of protein X2 of SARS-CoV Urbani: 0.2
  Binding of serum 2 to looped/cyclic peptides of protein X2 of SARS-CoV Urbani: 0.1
  Binding of serum 6 to looped/cyclic peptides of protein X2 of SARS-CoV Urbani: 0.0
  Binding of serum 37 to looped/cyclic peptides of protein X2 of SARS-CoV Urbani: 0.2
  Binding of serum 62 to looped/cyclic peptides of protein X2 of SARS-CoV Urbani: 0.3
  Binding of serum London to looped/cyclic peptides of protein X2 of SARS-CoV Urbani: 0.1
  Binding of serum SARS-green to looped/cyclic peptides of protein X2 of SARS-CoV Urbani: 0.2
  Binding of serum SARS-yellow to looped/cyclic peptides of protein X2 of SARS-CoV Urbani: 0.2
  Recognition of the peptide by sera of SARS-CoV infected individuals, and form (linear, looped/cyclic) in which it is recognized: recognized in linear form
[2]
  Binding of Control Serum Blood-Bank to Looped peptides: 0.2
  Binding of Control serum Blood-bank to linear peptides: 0.9
  Binding of Control serum LUMC to linear peptides: 0.6
  Binding of Control serum LUMC to looped peptides: 0.2
[3]
  Binding of a rabbit serum to linear peptides: 0.3
  Binding of a rabbit serum to looped peptides: 0.4
